Holding throughout (assay): growth of human tumour cells (NCI), 48 h
Test [1] concerns A549 NSCLC.
For test [2], the system named is ACHN renal.
Test [3] has as its system COLO 205 colon.
The subject of test [4] is EKVX NSCLC.
Test [5] deals with HOP-62 NSCLC.
In test [6] the test system is MDA-MB-435.
The subject of test [7] is MDA-N.
Test [8] relates to NCI-H226 lung.
Test [9] concerns NCI-H460 lung.
Test [10] concerns SF-295 CNS.
In test [11] the test system is SK-MEL-2 melanoma.
For test [12], the system named is T-47D breast.

The source of these data is PubChem BioAssay (NCI).

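The compound was tested at five concentrations on cells cultured in 96-well plates, with a 48-hour exposure period. TGI: concentration producing complete growth inhibition.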 A value given as a limit tells only on which side of the number the result lay.

Consider `COc1ccccc1/C=C/C1=NN(c2cccc(S(=O)(=O)O)c2)C2(C1)C(Cl)C(=O)N2c1nc2ccccc2s1` (centres undefined), for which the TGI in [1], in test [2], in test [3], in test [4], in test [5] and in test [6] was over 100 µM throughout. In addition, the TGI is over 100 µM in test [7]; over 100 µM in test [8]; over 100 µM in test [9]; over 100 µM in test [10]; over 100 µM in test [11]; 44 µM in test [12].

As for `O=C1NN(Cc2ccccc2)C(=O)N2CCC[C@@H]12`, the TGI in [1], in test [2], in [3], in test [4], in test [5] and in test [6] was over 100 µM in each case. Also, the TGI in test [7], in test [8], in test [9], in [10], in [11] and in [12] was over 100 µM in each case.

As to `CCCSc1ccc2[nH]c(N3C(=O)/C(=C/c4ccc(SC)cc4)N=C3c3ccccc3)cc2c1`, the TGI was over 50 µM in [1]; over 50 µM in test [2]; over 43.2 µM in test [3]; over 50 µM in [4]; over 50 µM in test [5]; 21.2 µM in [6]. Also, the TGI in [7] was 17.5 µM; in test [8], over 50 µM; in test [9] it was over 50 µM; in [10], over 50 µM; in [11], over 38.5 µM; in [12], over 50 µM.

Turning to `O=C(c1ccccc1)N1CCC(CC2(c3cc4ccccc4[nH]3)OCCO2)CC1`, the TGI was over 100 µM in [1]; over 100 µM in [2]; 40.1 µM in [3]; over 100 µM in [4]; over 100 µM in [5]; 51 µM in [6]. The TGI in test [7] is 87.5 µM; in test [8], over 100 µM; in test [9], over 100 µM; in [10], over 100 µM; in test [11], 73.6 µM; in test [12] it was over 100 µM.

`C=C(C(=O)OC)[C@@H]1C[C@@H](OC(C)=O)C2=C[C@H](C[C@@]3(C)O[C@@H]3C3=CC(C)=C(O3)[C@H]1OC(C)=O)OC2=O`: the TGI is over 100 µM in test [1]; 49.4 µM in test [2]; 25.8 µM in test [3]; 38.9 µM in test [4]; 67.2 µM in test [5]; 37.9 µM in [6]. Also, the TGI in [7] is 50.8 µM; in test [8] it was over 100 µM; in [9] it was 64.5 µM; in test [10], 88.5 µM; in test [11] it was over 100 µM; in [12], 33.8 µM.

On to `Nc1nc(NCCCO)cc(=O)[nH]1`, for which the TGI in [1], in [2], in [3], in [4], in [5] and in test [6] was over 100 µM in each case. The TGI in [7], in [8], in test [9], in [10], in [11] and in test [12] was over 100 µM each time.

`O=C1O[C@H]2[C@H](OC(=O)c3cc(O)c(O)c(O)c3)[C@@H](OC(=O)c3cc(O)c(O)c4c3[C@@H]3C1=CC(=O)C(O)(O)C3(O)O4)[C@H](OC(=O)c1cc(O)c(O)c(O)c1)O[C@@H]2COC(=O)c1cc(O)c(O)c(O)c1` (some centres undefined): the TGI in test [1], in test [2], in test [3], in [4], in [5] and in test [6] was over 100 µM each time. The TGI in [7], in [8], in test [9], in test [10], in [11] and in [12] was over 100 µM throughout.

As to `COc1ccc2c(c1)CCCN1CCc3ccccc3C21` (centres undefined), the TGI in [1] was over 100 µM; in test [2] it was over 100 µM; in test [3] it was 59.3 µM; in test [4], over 100 µM; in test [5], over 100 µM; in [6], 43.2 µM. Moreover, the TGI in test [7] is 52.9 µM; in test [8], 80 µM; in test [9], over 100 µM; in test [10] it was 79.1 µM; in test [11] it was over 100 µM; in test [12], over 100 µM.

Turning to `COC(=O)CCNC(=O)OCc1ccccc1`, the TGI in [1], in test [2], in test [3], in [4], in test [5] and in test [6] was over 100 µM each time. Moreover, the TGI in test [7], in test [8], in test [9], in test [10], in test [11] and in test [12] was over 100 µM each time.

In the case of `CCCCc1ccc(Nc2nc(OC)c3ncn(C4CC(O)C(CO)O4)c3n2)cc1` (centres undefined), the TGI is 39.3 µM in test [1]; 31.2 µM in test [2]; 28.4 µM in test [3]; 6.08 µM in test [4]; 94.7 µM in test [5]; 36.6 µM in test [6]. The TGI came to 30 µM in [7]; 44.5 µM in [8]; 32.9 µM in [9]; 36.5 µM in [10]; 47.5 µM in [11]; 43.1 µM in test [12].

For the molecule `CC(C)=CCC[C@@H](C)C1=C(O)C(Nc2ccccc2Cl)=C(C)C(=O)C1=O`, the TGI is over 59.7 µM in [1]; over 46.6 µM in test [2]; 21.7 µM in test [3]; over 75 µM in test [4]; over 64.2 µM in test [5]; over 75 µM in test [6]. In addition, the TGI in [7] is over 75 µM; in test [8], 29.3 µM; in test [9] it was over 75 µM; in [10], 34.2 µM; in [11] it was 46.7 µM; in [12], 62.7 µM.

Turning to `Nc1ncnc2c1ncn2C1CCC(CP(=O)(O)O)C1` (centres undefined), the TGI in test [1], in test [2], in test [3], in test [4], in [5] and in test [6] was over 100 µM throughout. The TGI in test [7], in test [8], in [9], in test [10], in test [11] and in test [12] was over 100 µM in each case.

As for `CC(=O)NCC1OC2COC(c3ccccc3)OC2C(NC(=O)c2ccccc2)C1OC(=O)c1ccccc1` (centres undefined), the TGI in [1], in [2], in test [3], in [4], in test [5] and in [6] was over 100 µM each time. The TGI in [7], in test [8], in test [9], in test [10], in test [11] and in test [12] was over 100 µM each time.

Take `CC(C)C(OC(=O)c1ccc(NCC2=CC(=O)C=CC2=O)cc1)C(C)C`: the TGI in [1] was over 73.1 µM; in test [2], 21.2 µM; in [3], 9.84 µM; in test [4], 29.1 µM; in test [5] it was 48.3 µM; in test [6] it was 17.9 µM. In addition, the TGI in [7] was 21.5 µM; in [8], 11.7 µM; in test [9], 32.6 µM; in [10], 29.4 µM; in [11] it was 27.3 µM; in test [12], 7.45 µM.

As for `O=C1Nc2nccnc2C(=O)N2CCC[C@@H]12`, the TGI in test [1], in test [2], in test [3], in [4], in test [5] and in [6] was over 100 µM in each case. Besides, the TGI in test [7], in test [8], in test [9], in [10], in test [11] and in test [12] was over 100 µM in each case.

As for `CCOP(=O)(OCC)C(C(=O)OC)C(=O)C(=O)Nc1cccc(O)c1` (centres undefined), the TGI in [1], in [2], in [3], in test [4], in [5] and in test [6] was over 100 µM each time. For the same molecule, the TGI in [7], in [8], in [9], in test [10], in test [11] and in [12] was over 100 µM each time.

In the case of `Cc1cc2nc3ccccc3n2c2nc(N)ccc12`, the TGI in [1], in test [2], in [3], in test [4], in test [5] and in test [6] was over 100 µM throughout. Further, the TGI in test [7] was over 100 µM; in [8] it was 84.9 µM; in [9], 27.5 µM; in test [10], 71.5 µM; in test [11], over 100 µM; in test [12], over 100 µM.

As for `COc1ccc(OC)c2c1C=CC(Br)=CC2`, the TGI in test [1] was over 1 µM; in test [2] it was over 1 µM; in [3], over 1 µM; in test [4], over 1 µM; in test [5] it was 0.915 µM; in test [6], 0.853 µM. Also, the TGI is 0.529 µM in test [7]; over 1 µM in test [8]; over 1 µM in test [9]; 0.373 µM in [10]; 0.247 µM in test [11]; 0.681 µM in test [12].

On to `COC(C)(C)/C=C/c1[nH]c2ccccc2c1CC(=O)NCCc1cn(C(c2ccccc2)(c2ccccc2)c2ccccc2)cn1`, for which the TGI in test [1] was over 100 µM; in [2] it was over 100 µM; in test [3] it was 3.85 µM; in [4], over 100 µM; in test [5] it was 34.4 µM; in test [6], 22.3 µM. Further, the TGI in test [7] was 19.9 µM; in test [8], 10.9 µM; in test [9], over 23.5 µM; in test [10], over 31.3 µM; in test [11] it was 6.45 µM; in test [12], over 21.9 µM.

For `Cc1ccc2nc(C(C)C)c(=O)[nH]c2c1`, the TGI was over 100 µM in [1]; over 100 µM in test [2]; over 100 µM in test [3]; over 100 µM in test [4]; 30.9 µM in test [5]; over 100 µM in test [6]. Moreover, the TGI in test [7] was over 100 µM; in test [8], over 100 µM; in test [9], over 100 µM; in test [10], over 100 µM; in [11] it was 28.2 µM; in test [12], over 100 µM.

In the case of `COc1cccc(C2c3cc4c(cc3OC(NNS(=O)(=O)c3ccc(C)cc3)C2C)OCO4)c1OC` (centres undefined), the TGI in test [1] is 11.4 µM; in [2], 9.85 µM; in test [3] it was 3.79 µM; in test [4], over 100 µM; in test [5], 9.06 µM; in test [6], over 100 µM. For the same molecule, the TGI in test [7] is over 100 µM; in [8] it was 13.1 µM; in [9], 8.64 µM; in test [10], over 100 µM; in [11] it was 7.18 µM; in [12], over 100 µM.

For `CCC(C)[C@@H](Nc1c(O)c2c(c(O)c1Cl)C(=O)C=CC2=O)C(=O)OC` (some centres undefined), the TGI is over 10 µM in [1]; over 10 µM in test [2]; 4.02 µM in test [3]; over 10 µM in test [4]; over 10 µM in test [5]; over 10 µM in test [6]. Further, the TGI in [7], in test [8], in [9], in test [10], in [11] and in [12] was over 10 µM in each case.
